Bridge positions count the residues as written; N and C are the ends. Ends that are not written are not given here.
Tests used:
[1] = system: rat ASIC1a; test: two-electrode voltage clamp on rASIC1a expressed in X. laevis oocytes; format: cell-based; details: maximal applied concentration 100 μM; pH drop 7.4 to 5.5
Method: Rat ASIC1a and ASIC3 channels were expressed in X. laevis oocytes after injection of 2.5–10 ng of cRNA, as previously described. After injection oocytes were kept for 2–3 days at 19 °C and then up to 5 days at the temperature of 15–16 °C in sterile ND96 medium (96 mM NaCl, 2 mM KCl, 1.8 mM CaCl2, 1 mM MgCl2, 5 mM HEPES titrated to pH 7.4 with NaOH supplemented with 50 μg/mL of gentamycin). Two-electrode voltage clamp recordings were performed using GeneClamp 500 amplifier (Axon Instruments, Burlingame, CA, USA). The data were filtered at 50 Hz and digitized at 1000 Hz by an AD converter L780 (LCard, Moscow, Russia) using in-house software (Moscow). The solutions were applied to a cell chamber (volume 50 μL). The laminar flow of an external solution of ND96 (pH 7.4) was used at a rate of 1 mL/min. ASIC1a and ASIC3 were activated by a short (1 s) application of a solution with a pH 5.5 (10 mM MES) using a fast application system. Peptides were applied 15 s before the activation pulse in a solution containing 0.1% BSA. A value of currents inhibition was calculated as the ratio of the peak current amplitude, when the peptide was applied to the average amplitude of the control peak currents before and after the peptide application and expressed as a percentage. […]

[2] = target: T1, rat ASIC3 (Rattus norvegicus, UniProt O35240); test: two-electrode voltage clamp on rASIC3 expressed in X. laevis oocytes; format: cell-based
T1 construct: expressed in transfected cells; host or cells: Xenopus laevis oocytes (cRNA injection)
T1 sequence (O35240 1-533): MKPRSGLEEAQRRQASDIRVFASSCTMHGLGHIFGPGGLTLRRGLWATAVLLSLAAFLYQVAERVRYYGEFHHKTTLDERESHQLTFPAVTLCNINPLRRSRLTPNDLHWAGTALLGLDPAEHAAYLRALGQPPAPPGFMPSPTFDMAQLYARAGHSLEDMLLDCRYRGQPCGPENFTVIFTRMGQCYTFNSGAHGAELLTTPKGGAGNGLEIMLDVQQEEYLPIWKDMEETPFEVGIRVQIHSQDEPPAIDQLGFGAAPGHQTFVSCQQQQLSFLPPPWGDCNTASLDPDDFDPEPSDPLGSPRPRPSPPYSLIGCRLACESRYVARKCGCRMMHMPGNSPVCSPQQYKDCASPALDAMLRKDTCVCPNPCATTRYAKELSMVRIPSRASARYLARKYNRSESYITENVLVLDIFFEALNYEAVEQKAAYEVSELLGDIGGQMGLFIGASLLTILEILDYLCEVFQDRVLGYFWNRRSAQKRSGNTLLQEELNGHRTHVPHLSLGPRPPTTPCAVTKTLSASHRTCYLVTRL
Method: Rat ASIC1a and ASIC3 channels were expressed in X. laevis oocytes after injection of 2.5–10 ng of cRNA, as previously described. After injection oocytes were kept for 2–3 days at 19 °C and then up to 5 days at the temperature of 15–16 °C in sterile ND96 medium (96 mM NaCl, 2 mM KCl, 1.8 mM CaCl2, 1 mM MgCl2, 5 mM HEPES titrated to pH 7.4 with NaOH supplemented with 50 μg/mL of gentamycin). Two-electrode voltage clamp recordings were performed using GeneClamp 500 amplifier (Axon Instruments, Burlingame, CA, USA). The data were filtered at 50 Hz and digitized at 1000 Hz by an AD converter L780 (LCard, Moscow, Russia) using in-house software (Moscow). The solutions were applied to a cell chamber (volume 50 μL). The laminar flow of an external solution of ND96 (pH 7.4) was used at a rate of 1 mL/min. ASIC1a and ASIC3 were activated by a short (1 s) application of a solution with a pH 5.5 (10 mM MES) using a fast application system. Peptides were applied 15 s before the activation pulse in a solution containing 0.1% BSA. A value of currents inhibition was calculated as the ratio of the peak current amplitude, when the peptide was applied to the average amplitude of the control peak currents before and after the peptide application and expressed as a percentage. To construct the concentration-response curves, a logistic equation was the following: y = ((1 − A)/(1 + ([C]/IC50)^nH)) + A; where y is the relative value of current inhibition; C is the peptide concentration; IC50 is the half maximal inhibitory concentration; nH is the Hill coefficient; A is an amplitude of maximum inhibition (% of control).

[3] = system: muscle α1β1δε nAChR; design: method as in PMID 16571968; details: read-out: EC50 of ACh for α1β1δε; cited from earlier work

## GTPCKCLGYTGVYWFMITRCPNGHGYNLSCPYFLGVCCVKK (disulfide 4-37, 6-30, 20-38) [Hmg 1b-5]
[1]
  inhibition of rASIC1a current: 17%
[2]
  IC50: 13.8 ± 0.6 µM
[2]; 100 μM peptide, pH drop 7.4 to 5.5
  maximal inhibitory effect on rASIC3 acid-induced current: about 78%
[2]; logistic fit, n = 5
  Hill coefficient nH, rASIC3 inhibition: 1.22 ± 0.04
[2]; logistic fit, n = 5, amplitude of maximum inhibition (% of control)
  Iminimal, rASIC3 concentration-response fit: 22.4 ± 1.3

## CC(=O)OCC[N+](C)(C)C [ACh, acetylcholine]
[3]
  EC50: ~5 µM

From paper PMC9611977 (Toxins, 2022)
